# Marks after values point to notes of the source that are not given here.
# Test system: Xenopus laevis neurulation stage embryos (stage 15)
# Experiment: Xenopus cDNA microarray, differential gene expression after PMA treatment during neurulation (Group II)
# Type: in vivo
# Conditions: for Ratio of Medians (Cy5/Cy3) Mean / Ratio of Medians (Cy5/Cy3) Second Spot / Cy3/Cy5 by Landmarks (0.25) / Cy3/Cy5 by all Data Points (0.469) / Normalized by Landmarks (0.25) / Normalized by all Data Points (0.469) / Ratio of Medians (Cy5/Cy3) First Spot: PMA, stage 15; for % increase of mRNA expression by Microarray analysis (NF by all data point): Stage 15
# Description: Specifically, the method and screen of the present invention function as follows. EST clones produced from Xenopus laevis unfertilized eggs were used in the present study with ˜1,200 EST clones from a 18,500 EST clone set selected for production of a Xenopus cDNA microarray. The Xenopus microarray was used to measure the effect of chemical treatment on Xenopus embryo gene regulation. The chemical treatment was a phorbol ester, PMA. Xenopus eggs were obtained from females induced for ovulation and fertilized in vitro. Control Xenopus laevis embryos were allowed to develop to stage 8 blastula or stage 15 neurula. Treated embryos were exposed to PMA during cleavage stage or during neurulation with end points of blastula (stage 8) or neurula (stage 15). Specifically, PMA 100 ng/ml was added to the incubation media during cleavage stages for evaluation in stage 8 embryo or PMA was added during neural induction for evaluation in stage 15 embryos. RNA extracted from the embryos was used to generate fluorescent cDNA probes for Xenopus microarray analyses to measure differential gene expression with and without the phorbol ester treatment. Analysis was performed using paired RNA samples to compare PMA-treated and untreated embryos: Group I measured the effects of PMA-treatment during the cleavage stage in stage 8 embryos and Group II measured the effects of PMA-treatment during neurulation in stage 15 embryos. Group III measured the change in gene expression between stage 8 and stage 15 embryos.
# cDNA fragments were obtained by PCR replication of Xenopus laevis unfertilized egg cDNA inserts, purified, quantitated and loaded onto glass chips by robotics. In addition to the selected ˜1,200 genes, 64 lambda Q gene, an internal control cDNA (Genomic Solutions, Inc., Ann Arbor, Mich.) was loaded on the chip. The insert DNA from ˜1,200 clones were PCR amplified using forward and reverse primers (GF.200 primers, Research Genetics, Huntsville, Ala.). A second PCR was carried out using 1 μl of the primary PCR (20 μl) for template. Excess dNTPs, polymerase and other PCR artifacts were removed from the secondary PCR reactions using Millipore Multiscreen plates (Millipore Corporation, Bedford, Mass.) using the standard protocol. The purity of the PCR products was assessed by electrophoresis and documented using an Alphalmager 1000 Digital Imaging System (Alpha Innotech Corporation, San Leandro, Calif.). The DNA obtained by PCR was quantitated using PicoGreen (Molecular Probes, Eugene, Oreg.). The DNA was denatured and arrayed onto amino-silane coated microscope slides (CMT-GAPS coated slides, Corning, Corning, N.Y.) using a Flexys robotic workstation (Genomic Solutions Inc.). The ˜1,200 PCR products were arrayed in duplicate on each slide and cross-linked. Each gene chip contained duplicate cDNA samples.
# Total RNA was prepared from embryos treated in three separate dishes per treatment group that were pooled. Total RNA was isolated from the frog embryos (1,200 embryos for each probe production) using TRIzol extraction (Gibco BRL, Grand Island, N.Y.) and Qiagen RNeasy kits (Qiagen, Valencia, Calif.). The ethanol precipitated RNA was resuspended in RNase-free water, quantitated with RiboGreen (Molecular Probes, Eugene, Oreg.). Total RNA was further purified using oligoTex mRNA maxi kit (Qiagen Co.) with the bound mRNA eluted with minimum volume of elution buffer and precipitated with ethanol. The recovery rate of mRNA by the ethanol precipitation method was ˜70%. Cy3- or Cy5-tagged probes were produced from an mRNA mixture (20 μl) of Xenopus mRNA (5 μg) and lambda Q gene mRNA (3.5 ng) reverse-transcribed with oligo(dT)18-22 primer and dNTPs and the reverse-transcribed cDNA was cross-linked with Cy3 or Cy5 as described in Clontech Atlas™ Glass Fluorescent Labeling kit manual (www.clontech.com). After hydrolysis of the RNA and purification of the probe (Centricon 50, Millipore, Bedford, Mass.), the cDNA in TE buffer was quantitated by absorbance at 260 nm. […]
smiles,measurement,setting,value
"CCCCCCCCCCCCCC(=O)O[C@@H]1[C@@H](C)[C@@]2(O)[C@@H](C=C(CO)C[C@]3(O)C(=O)C(C)=C[C@@H]23)[C@@H]2C(C)(C)[C@]12OC(C)=O [PMA, phorbol 12-myristate 12-acetate]",Ratio of Medians (Cy5/Cy3) Mean,PBX0139G06 mRNA,1.06 ± 0.00 ^a
same,Ratio of Medians (Cy5/Cy3) Second Spot,PBX0139G06 mRNA,1.06
same,Cy3/Cy5 by Landmarks (0.25),PBX0140A10 mRNA,4.20
same,Cy3/Cy5 by all Data Points (0.469),PBX0140A10 mRNA,2.24
same,Normalized by Landmarks (0.25),PBX0140A10 mRNA,0.238
same,Normalized by all Data Points (0.469),PBX0140A10 mRNA,0.446
same,Ratio of Medians (Cy5/Cy3) First Spot,PBX0140A10 mRNA,0.89
same,Ratio of Medians (Cy5/Cy3) Mean,PBX0140A10 mRNA,0.95 ± 0.06 ^a
same,Ratio of Medians (Cy5/Cy3) Second Spot,PBX0140A10 mRNA,1.00
same,Cy3/Cy5 by Landmarks (0.25),PBX0141B10 mRNA,3.92
same,Cy3/Cy5 by all Data Points (0.469),PBX0141B10 mRNA,2.09
same,Normalized by Landmarks (0.25),PBX0141B10 mRNA,0.255
same,Normalized by all Data Points (0.469),PBX0141B10 mRNA,0.478
same,Ratio of Medians (Cy5/Cy3) First Spot,PBX0141B10 mRNA,0.92
same,Ratio of Medians (Cy5/Cy3) Mean,PBX0141B10 mRNA,1.02 ± 0.10 ^a
same,Ratio of Medians (Cy5/Cy3) Second Spot,PBX0141B10 mRNA,1.12
same,Cy3/Cy5 by Landmarks (0.25),PBX0141H05 mRNA,10.8
same,Cy3/Cy5 by all Data Points (0.469),PBX0141H05 mRNA,5.76
same,Normalized by Landmarks (0.25),PBX0141H05 mRNA,0.093
same,Normalized by all Data Points (0.469),PBX0141H05 mRNA,0.174
same,Ratio of Medians (Cy5/Cy3) First Spot,PBX0141H05 mRNA,0.73
same,Ratio of Medians (Cy5/Cy3) Mean,PBX0141H05 mRNA,0.37 ± 0.36 ^a
same,Ratio of Medians (Cy5/Cy3) Second Spot,PBX0141H05 mRNA,0.015
same,Normalized by Landmarks (0.25),PBX 0141H12 mRNA,1.40
same,Normalized by all Data Points (0.469),PBX 0141H12 mRNA,2.63
same,Ratio of Medians (Cy5/Cy3) First Spot,PBX 0141H12 mRNA,7.46
same,Ratio of Medians (Cy5/Cy3) Mean,PBX 0141H12 mRNA,5.61 ± 1.85 ^a
same,Ratio of Medians (Cy5/Cy3) Second Spot,PBX 0141H12 mRNA,3.75
same,Normalized by Landmarks (0.25),PBX 0143E06 mRNA,1.60
same,Normalized by all Data Points (0.469),PBX 0143E06 mRNA,3.01
same,Ratio of Medians (Cy5/Cy3) First Spot,PBX 0143E06 mRNA,6.04
same,Ratio of Medians (Cy5/Cy3) Mean,PBX 0143E06 mRNA,6.41 ± 0.3 ^a
same,Ratio of Medians (Cy5/Cy3) Second Spot,PBX 0143E06 mRNA,6.78
same,Normalized by Landmarks (0.25),PBX 0143E11 mRNA,1.41
same,Normalized by all Data Points (0.469),PBX 0143E11 mRNA,2.64
same,Ratio of Medians (Cy5/Cy3) First Spot,PBX 0143E11 mRNA,4.62
same,Ratio of Medians (Cy5/Cy3) Mean,PBX 0143E11 mRNA,5.64 ± 1.01 ^a
same,Ratio of Medians (Cy5/Cy3) Second Spot,PBX 0143E11 mRNA,6.65
same,Cy3/Cy5 by Landmarks (0.25),PBX0144A09 mRNA,4.00
same,Cy3/Cy5 by all Data Points (0.469),PBX0144A09 mRNA,2.13
same,Normalized by Landmarks (0.25),PBX0144A09 mRNA,0.250
same,Normalized by all Data Points (0.469),PBX0144A09 mRNA,0.469
same,Ratio of Medians (Cy5/Cy3) First Spot,PBX0144A09 mRNA,0.83
same,Ratio of Medians (Cy5/Cy3) Mean,PBX0144A09 mRNA,1.00 ± 0.17 ^a
same,Ratio of Medians (Cy5/Cy3) Second Spot,PBX0144A09 mRNA,1.16
same,Cy3/Cy5 by Landmarks (0.25),PBX0145D04 mRNA,4.35
same,Cy3/Cy5 by all Data Points (0.469),PBX0145D04 mRNA,2.32
same,Normalized by Landmarks (0.25),PBX0145D04 mRNA,0.230
same,Normalized by all Data Points (0.469),PBX0145D04 mRNA,0.431
same,Ratio of Medians (Cy5/Cy3) First Spot,PBX0145D04 mRNA,0.9
same,Ratio of Medians (Cy5/Cy3) Mean,PBX0145D04 mRNA,0.92 ± 0.02 ^a
same,Ratio of Medians (Cy5/Cy3) Second Spot,PBX0145D04 mRNA,0.95
same,Cy3/Cy5 by Landmarks (0.25),PBX0145D06 mRNA,4.03
same,Cy3/Cy5 by all Data Points (0.469),PBX0145D06 mRNA,2.15
same,Normalized by Landmarks (0.25),PBX0145D06 mRNA,0.248
same,Normalized by all Data Points (0.469),PBX0145D06 mRNA,0.464
same,Ratio of Medians (Cy5/Cy3) First Spot,PBX0145D06 mRNA,0.98
same,Ratio of Medians (Cy5/Cy3) Mean,PBX0145D06 mRNA,0.99 ± 0.01 ^a
same,Ratio of Medians (Cy5/Cy3) Second Spot,PBX0145D06 mRNA,1.00
same,% increase of mRNA expression by Microarray analysis (NF by all data point),gene PBX0135A08,no change
same,% increase of mRNA expression by Microarray analysis (NF by all data point),gene PBX013409,no change

# Reference: patent publication US20080145858A1, “DETECTION AND IDENTIFICATION OF TOXICANTS BY MEASUREMENT OF GENE […]” (priority 2003, published 2008)
